From patent US20080039442A1, “Compounds With Kv4 Ion Channel Activity” (Devgen NV, priority 2004, published 2008)
Read-outs that look alike come from different tables or passages of the source.

Assays:
[1] = target: T1, human Kv4.3/KChIP2.2 potassium channel (Homo sapiens, UniProt Q9UK17); assay: Whole cell patch clamp, CHO-K1 cells stably expressing Kv4.3/KChIP2.2; type: cell-based; conditions: CHO-K1, 1 μM
T1 construct: expressed in transfected cells
T1 sequence (Q9UK17 1-655): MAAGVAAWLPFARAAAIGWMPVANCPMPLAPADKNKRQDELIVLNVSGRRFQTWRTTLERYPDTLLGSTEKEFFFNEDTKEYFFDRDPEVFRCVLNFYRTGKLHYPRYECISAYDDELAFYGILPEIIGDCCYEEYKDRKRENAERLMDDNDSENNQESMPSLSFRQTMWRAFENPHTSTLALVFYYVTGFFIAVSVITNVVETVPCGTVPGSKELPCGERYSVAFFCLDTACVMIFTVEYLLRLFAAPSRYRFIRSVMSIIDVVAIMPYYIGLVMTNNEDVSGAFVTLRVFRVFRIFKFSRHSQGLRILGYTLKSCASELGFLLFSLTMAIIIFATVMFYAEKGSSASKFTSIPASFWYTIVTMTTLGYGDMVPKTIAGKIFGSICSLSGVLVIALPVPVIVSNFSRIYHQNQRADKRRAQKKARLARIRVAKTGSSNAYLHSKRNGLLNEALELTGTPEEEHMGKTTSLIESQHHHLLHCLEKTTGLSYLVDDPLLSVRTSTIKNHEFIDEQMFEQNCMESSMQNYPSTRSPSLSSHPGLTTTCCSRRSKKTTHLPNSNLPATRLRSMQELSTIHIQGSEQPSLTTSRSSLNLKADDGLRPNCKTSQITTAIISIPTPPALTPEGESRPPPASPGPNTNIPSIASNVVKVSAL
T1 sequence (Q9NS61 1-270 partner): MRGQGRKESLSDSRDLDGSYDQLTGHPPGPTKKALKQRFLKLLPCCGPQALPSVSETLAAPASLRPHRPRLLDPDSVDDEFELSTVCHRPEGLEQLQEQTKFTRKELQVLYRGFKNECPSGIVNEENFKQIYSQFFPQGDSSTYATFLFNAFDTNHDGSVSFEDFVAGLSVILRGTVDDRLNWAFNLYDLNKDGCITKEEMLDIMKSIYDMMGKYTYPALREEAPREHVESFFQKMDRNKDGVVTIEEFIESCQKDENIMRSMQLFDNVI
Protocol: For this experiment, a recombinant CHO-K1 cell line stably expressing the human Kv4.3/KChIP2.2 potassium channel was used.
Protocol B: The cells were cultured in 94 mm culture dishes under the culturing conditions of 5% CO2 and 37° C. Subculturing was performed every 3-4 days, by removing the media and then rising the dish with 8 ml PBS (phosphate buffered saline). The PBS was removed and 1 ml Trypsin/EDTA was added to the cells. The cells were incubated about 2 min at 37° C. or 5 min at room temperature and then the dish was rapped to detach and singularize the cells. To inactivate the enzyme 9 ml of media was added and the solution was pipetted up and down to break up clumps of cells. Part of the suspension was then transferred to a new 94 mm dish and media was added to a final volume of 8 ml. If necessary the cells could be seeded onto 35 mm or 94 mm dishes (2 ml media per 35 mm dish and 8 ml media per 94 mm dish). The media was changed every 2-3 days. The media used was the solution for culturing the cells described above. For stable cells antibiotic G418, Hygromycin, Blasticidin, or Zeocin were not added.
The preparation of cells for electrophysiological experiments was performed as described in protocol C hereunder.
Protocol C: The transfected cells and stable cells were transferred from 35 mm cell culture dishes onto coverslips using cold PBS: The media was removed and 0.3 ml of PBS (4-10° C.) was added. The cells were incubated 5 min at room temperature. The dish was rapped to detach and singularize the cells and 1.7 ml media was added and the solution pipetted up and down to break up clumps of cells. Part of the cell suspension was then transferred to a 35 mm dish with coverslips and media. The transfected cells and stable cells could also be transferred from 35 mm cell culture dishes onto coverslips using trypsin: The media was removed and the dish rinsed with 3 ml PBS. The PBS was removed and 0.3 ml 1× Trypsin/EDTA was added and the cells incubated 5 min at room temperature. The dish was rapped to detach and singularize the cells and 1.7 ml media was added and the solution pipetted up and down to break up clumps of cells. Part of the cell suspension was then transferred to a 35 mm dish with coverslips and media.
10 mM stock solutions of the compounds were prepared in DMSO. Solutions of the compounds were prepared by dilution of stock solution in bath solution. If the required stock solution volume was theoretically below 1 μl, bath solutions with higher compound concentration were used for dilution. The maximal DMSO concentration during experiments was 0.1% (v/v).
For patch clamp experiments, the following solutions in demineralized water as vehicle were used (concentration in mM).
Bath (external) solution: 4 KCl, 135 NaCl, 2 CaCl2, 1 MgCl2, 10 D(+)-Glucose, 5 HEPES, pH 7.4 (NaOH).
Pipette (internal) solution: 130 KCl, 1 MgCl2, 10 EGTA, 5 Na2ATP, 5 HEPES, pH 7.4 (KOH).
Experiments were performed using a patch clamp set-up.
Measurements were performed at room temperature (20-25° C.). […] Each cell acted as its own control. The effect of compounds on Kv4.3/KChIP2.2 mediated currents was investigated at one concentration ([…]) with two replicates each (c=1, n=2).
The test protocols are illustrated in FIG. 1 and Table 4. […] Each test protocol consisted of 4 segments.
Subsequently, 14 test pulses (series 1; FIG. 1b and Table 4b) were applied at 0.1 Hz under constant superfusion with bath solution. The protocol was initiated by a voltage jump to −100 mV (400 ms) to achieve full inactivation. Then the Kv4.3/KChIP2.2 channels were transferred to the open state by depolarization to +40 mV for 300 milliseconds (activation). Only cells generating current amplitudes between 1 nA and 50 nA were used for the experimental procedure. No or negligible rundown was observed.
Then, 36 test pulses (series 2) were applied at 0.1 Hz under constant superfusion with the compound dissolved in bath solution. […]

[2] = read-out: Kv4.3 charge in %: remaining current measured after application of the compound and relative to the blank
[3] = read-out: Kv4.3 peak in %: remaining peak height measured after application of the compound and relative to the blank

Row | remaining activity at 1 µM [1, 2] [%] | remaining activity at 1 µM [1, 3] [%] | melting point [°C] | SMILES
1 |  |  | 146.1 to 147.4 | COc1ccccc1C1CCN(C(=O)c2cc3cc(Cl)ccc3o2)CC1 [Compound 95, (5-chloro-benzofuran-2-yl)-[4-(2-methoxy-phenyl)-piperidin-1-yl]-methanone]
2 |  |  | 223.8 to 225.6 | O=C(Nc1ccc(N2CCOCC2)cc1)c1cc2cc(Cl)ccc2o1 [Compound 99]
3 |  |  | 114.6 to 116.2 | O=C(c1cc2cc(Cl)ccc2o1)N1CCC(Cc2ccccc2)CC1 [Compound 101, (4-benzyl-piperidin-1-yl)-(5-chloro-benzofuran-2-yl)-methanone]
4 |  |  | 135 to 137.1 | O=C(c1ccc(F)cc1)C1CCN(C(=O)c2cc3cc(Cl)ccc3o2)CC1 [Compound 102]
5 |  |  | 123.3 to 125.4 | O=C(c1cc2cc(Cl)ccc2o1)N1CCCC1c1ccccc1 (centres unmarked) [Compound 103, (5-chloro-benzofuran-2-yl)-(2-phenyl-pyrrolidin-1-yl)-methanone]
6 |  |  | 104.4 to 106.1 | O=C(c1cc2cc(Cl)ccc2o1)N1CCCC1c1ccc(F)cc1 (centres unmarked) [Compound 104, (5-chloro-benzofuran-2-yl)-[2-(4-fluoro-phenyl)-pyrrolidin-1-yl]-methanone]
7 |  |  | 180.5 to 182 | Cc1cccc(Cl)c1CNC(=O)c1sc2ccc(Cl)cc2c1C [Compound 110, 5-chloro-3-methyl-benzo[b]thiophene-2-carboxylic acid 2-chloro-6-methyl-benzylamide]
8 |  |  | 205.7 to 209.3 | COc1ccc(CNC(=O)c2cc3cc(Cl)ccc3[nH]2)c(OC)c1 [Compound 111, 5-chloro-1H-indole-2-carboxylic acid 2,4-dimethoxy-benzylamide]
9 |  |  | 93.9 to 95.4 | COc1ccc(CNC(=O)c2ccc3ccccc3n2)c(OC)c1 [Compound 112, quinolin-2-carboxylic acid 2,4-dimethoxy-benzylamide]
10 |  |  | 121.1 to 124.3 | O=C(NCC1COc2ccccc2O1)c1cc2cc(Cl)ccc2o1 (centres unmarked) [Compound 113, 5-chloro-benzofuran-2-carboxylic acid (2,3-dihydro-benzo[1,4]dioxin-2-ylmethyl)-amide]
11 |  |  | 165.5 to 170.3 | COc1ccc(CNC(=O)c2oc3ccc(Cl)cc3c2NC(C)=O)c(OC)c1 [Compound 115, 3-acetylamino-5-chloro-benzofuran-2-carboxylic acid 2,4-dimethoxy-benzylamide]
12 |  |  | 159.2 to 162.4 | Cc1c(C(=O)NCc2ccc(OC(F)(F)F)cc2)sc2ccc(Cl)cc12 [Compound 117]
13 |  |  | 210 to 212 | Cc1cc(Cl)cc(Cl)c1CNC(=O)c1cc2cc(Cl)ccc2o1 [Compound 119, 5-chloro-benzofuran-2-carboxylic acid 2,4-dichloro-6-methyl-benzylamide]

The remaining lines, values behind:

Row | SMILES | remaining activity at 1 µM [1, 2] [%] | remaining activity at 1 µM [1, 3] [%] | melting point [°C]
14 | COc1ccc(CNC(=O)c2cc3c(C(C)=O)ccc(OC)c3o2)c(OC)c1 [Compound 13, 4-acetyl-7-methoxy-benzofuran-2-carboxylic acid 2,4-dimethoxy-benzylamide] | 86 | 99 | 148.2 to 150.3
15 | COc1ccc(CC(=O)Nc2cc3ccccc3o2)c(OC)c1 [Compound 22, N-benzofuran-2-yl-2-(2,4-dimethoxy-phenyl)-acetamide] | 90 | 100 | 126.4 to 128.2
16 | COc1ccc(NC(=O)c2cc3cc(Cl)ccc3o2)c(OC)c1 [Compound 24, 5-chloro-benzofuran-2-carboxylic acid (2,4-dimethoxy-phenyl)-amide] | 85 | 102 | 161.6 to 163.3
17 | O=C(NC1Cc2ccccc2C1)c1cc2cc(Cl)ccc2o1 [Compound 25, 5-chloro-benzofuran-2-carboxylic acid indan-2-ylamide] | 82 | 100 | 190.2 to 190.5
18 | O=C(c1cc2cc(Cl)ccc2o1)N1Cc2ccccc2C1 [Compound 26, (5-chloro-benzofuran-2-yl)-(1,3-dihydro-isoindol-2-yl)-methanone] | 81 | 99 | 187.1 to 188.5
19 | O=C(c1cc2cc(Cl)ccc2o1)N1CCc2ccccc2C1 [Compound 27, (5-chloro-benzofuran-2-yl)-(3,4-dihydro-1H-isoquinolin-2-yl)-methanone] | 59 | 86 | 127.7 to 129.1
20 | COC(=O)[C@H](NC(=O)c1cc2cc(Cl)ccc2o1)c1ccccc1 [Compound 84, (R)-[(5-chloro-benzofuran-2-carbonyl)-amino]-phenyl-acetic acid methyl ester] |  |  | 147.9
21 | COC(=O)[C@@H](NC(=O)c1cc2cc(Cl)ccc2o1)c1ccccc1 [Compound 85, (S)[(5-chloro-benzofuran-2-carbonyl)-amino]-phenyl-acetic acid methyl ester] |  |  | 76.5 to 79.1
22 | O=C(NCc1ccccc1OC(F)(F)F)c1cc2cc(Cl)ccc2o1 [Compound 87, 5-chloro-benzofuran-2-carboxylic acid 2-trifluoromethoxy-benzylamide] |  |  | 125.8 to 127.9
23 | O=C(NCc1cccc(OC(F)(F)F)c1)c1cc2cc(Cl)ccc2o1 [Compound 88, 5-chloro-benzofuran-2-carboxylic acid 3-trifluoromethoxy-benzylamide] |  |  | 133.5 to 137.9
24 | Cc1ccc(C)c(CNC(=O)c2cc3cc(Cl)ccc3o2)c1 [Compound 90, 5-chloro-benzofuran-2-carboxylic acid 2,5-dimethyl-benzylamide] |  |  | 123.1 to 124
25 | O=C(NCc1ccc(-c2cnns2)cc1)c1cc2cc(Cl)ccc2o1 [Compound 91, 5-chloro-benzofuran-2-carboxylic acid 4-[1,2,3]thiadiazol-5-yl-benzylamide] |  |  | 178.1 to 181.8
26 | O=C(NC1CCc2ccccc21)c1cc2cc(Cl)ccc2o1 (centres unmarked) [Compound 94, 5-chloro-benzofuran-2-carboxylic acid indan-1-ylamide] |  |  | 161.4 to 164.1
